Laboratory results: article PMC12648864 (Biology of Sex Differences, 2025)
Where “and” joins values, the source holds several entries; their conditions need not be identical. Equal values may be shown once. Read-outs that look alike come from different tables or passages of the source.

System: plasma metabolites
Type: in vivo, rat
Description: Male and female SD rats were divided into experimental and control groups. Each group contained 10 male and 10 female rats. […] Blood was collected from orbital vein into sodium heparin-coated centrifugal tubes pre-chilled at 4 ℃, at 30 min, 2 h, and 12 h post-administration respectively. Plasma was separated by gentle inversion, immediately quenched in liquid nitrogen, and centrifuged at 1500 g for 10 min at 4 ℃. The prepared plasma was stored at − 80 ℃ until LC-MS/MS analysis.
The stored plasma samples were thawed at 4 °C, and 100 µL of each sample was transferred to a centrifuge tube. Proteins were precipitated using 1 mL of methanol/acetonitrile/water solution (2:2:1, v: v:v) at 4 °C. After vortex mixing, the sample mixture was sonicated for 30 min (ice was used to maintain the low-temperature conditions). The sonicated mixture was allowed to stand for 10 min at […], then centrifuged at 14,000 g for 20 min at 4 °C. The resulting supernatant was collected and dried under vacuum. For instrumental analysis, the dried supernatant was reconstituted in 100 µL of aqueous acetonitrile solution, vortexed, then centrifuged at 14,000 g for 15 min at 4 °C. To ensure instrument stability and data reliability, quality control samples were prepared and analyzed using random sampling.
Chromatographic conditions: separation was performed in a Waters Acquity UPLC BEH Amide column (1.7 μm, 2.1 × 100 mm). The column temperature was 25 ℃ and flow rate was 0.5 mL/min. The injection volume was 2 µL, with the mobile phases consisting of A: water + 25 mM ammonium acetate + 25 mM ammonia, and B: acetonitrile. The gradient elution program was as follows: 0–0.5 min, 95% B; 0.5–7 min, 95%−65% B; 7–8 min, 65%−40% B; 8–9 min, 40% B; 9–9.1 min, 40%−95%B; 9.1–12 min, 95%B.
MS conditions: Detection was carried out using electrospray ionization in both positive and negative ion modes. The following parameters were used: spray voltage, ± 5500 V; ionization temperature, 600 ℃; nebulization air pressure, 60 psi; auxiliary air pressure, 60 psi; air curtain air pressure, 30 psi; time-of-flight MS scanning range (m/z), 60–1000 Da; product ion scanning range, 25–1000 Da. The secondary mass spectra were acquired using information-dependent acquisition in high-resolution mode. The cone bore voltage was ± 60 V (positive and negative modes) and collision energy was 35 ± 15 eV.
Orthogonal partial least squares-discriminant analysis (OPLS-DA) were computed for control female and male rats. […] Differential metabolites were identified using stringent criteria: variable importance in projection (VIP) scores > 1 and statistically significant from t-test.
OPLS-DA scores were calculated for the control group and experimental male rats. […] Differential metabolites were identified using stringent selection criteria: VIP scores > 1.0 and P < 0.05, as derived from the OPLS-DA model.
We performed pairwise comparisons of metabolites between male and female rats in the experimental and control groups. […] We performed KEGG enrichment analysis on metabolites that differed between male and female rats in the experimental group (Fig. 6G-I).

[1] = female rats, 30 minutes, test group (TF3, strychnine) vs control group (BF3), plasma metabolite
[2] = female rats, 12 hour, test group (TF8, strychnine) vs control group (BF8), plasma metabolite
[3] = male rats, test (TM5) vs control (BM5), 2 hours, plasma
[4] = male rats, test (TM3) vs control (BM3), 30 minutes, plasma
[5] = female rats, 2 hour, test group (TF5, strychnine) vs control group (BF5), plasma metabolite
[6] = male rats, test (TM8) vs control (BM8), 12 hours, plasma

Compound `CCCCCCCC/C=C\CCCCCCCC(=O)OC[C@@H](O)COP(=O)([O-])OCC[N+](C)(C)C` [1-Oleoyl-sn-glycero-3-phosphocholine] has a Fold change [1] of 0.8445.

`CCCCCCCCCCCCCCCC(=O)OCC(O)CO` (stereo not shown) [1-Palmitoylglycerol] gave a Fold change [1] of 0.3279, a Fold change [2] of 1.171 and a Fold change [3] of 0.6081.

With `CCCCCCCC/C=C\CCCCCCCC(=O)OC[C@H](COP(=O)([O-])OCC[N+](C)(C)C)OC(=O)CCCCCCC/C=C\CCCCCCCC` the Fold change [1] was 0.7409 and the Fold change [4] was 1.344.

In the case of `C[n+]1cccc(C(N)=O)c1` [1-Methylnicotinamide], the Fold change [3] was 1.347.

Work on `CCCC[C@H](N)C(=O)O` [L-Norleucine] yielded a Fold change [1] of 0.6394, a Fold change [5] of 1.28 and a Fold change [2] of 1.298. It also gave a Fold change [6] of 0.6711.

`CCCCCCCCCCCCCCCC(=O)OC[C@@H](O)COP(=O)([O-])OCC[N+](C)(C)C` [1-Palmitoyllysophosphatidylcholine] gave a Fold change [3] of 1.155.

`CCCCCCCC/C=C\CCCCCCCC(=O)O[C@H](COC(=O)CCCCCCCCCCCCCCCCC)COP(=O)([O-])OCC[N+](C)(C)C` gave a Fold change [4] of 0.7683.

In the case of `CCCCC/C=C\C/C=C\CCCCCCCC(=O)OCC(O)CO` (racemic) [MG(18:2(9Z,12Z)/0:0/0:0)[rac]], the Fold change [4] was 0.8489.

Work on `NC(N)=O` [Urea] yielded a Fold change [5] of 1.116.

`COc1ccc(-c2cc(=O)c3c(OC)c(OC)c(OC)c(OC)c3o2)cc1` [Tangeritin] gave a Fold change [5] of 3.045, a Fold change [2] of 9.489 and a Fold change [6] of 0.02313.

`CN(C)C(N)=NCCC[C@H](N)C(=O)O` [NG,NG-dimethyl-L-arginine(ADMA)] showed a Fold change [4] of 0.5058.

`CCCCCCCCCCCCC/C=C/[C@@H](O)[C@H](COP(=O)([O-])OCC[N+](C)(C)C)NC(=O)CCCCCCCCCCCCCCCCC` [Sphingomyelin (d18:1/18:0)] was tested, and the Fold change (rat, in vivo) was 1.142 and 1.189.

Compound `O=C1CCCCCN1` [epsilon-Caprolactam] has a Fold change [1] of 1.263, a Fold change [2] of 0.793 and a Fold change [3] of 0.6921.

Work on `CCCCCCCCCCCCCCC[C@@H](O)[C@@H](N)CO` [Sphinganine] yielded a Fold change [1] of 1.985.

`CC(=O)OC[C@H](N)C(=O)O` [O-Acetyl-L-serine] showed a Fold change [4] of 0.6094.

Compound `CCCCCCCCCCCCCC(=O)OC[C@@H](O)COP(=O)([O-])OCC[N+](C)(C)C` [1-Myristoyl-sn-glycero-3-phosphocholine] has a Fold change [1] of 0.7956, a Fold change [5] of 0.6202 and a Fold change [2] of 0.767. The Fold change [4] was 1.568 and the Fold change [6] was 1.421.

`O=C(O)[C@@H]1CCCCN1` [L-Pipecolic acid] showed a Fold change [1] of 0.7035, a Fold change [5] of 1.162 and a Fold change [2] of 1.276.

With `O=C(O)[C@H]1CCCCN1` [D-Pipecolinic acid] the Fold change [1] was 2.231 and the Fold change [5] was 1.817.

Compound `CSC[C@H]1O[C@@H](n2cnc3c(N)ncnc32)[C@H](O)[C@@H]1O` [S-Methyl-5'-thioadenosine] has a Fold change [6] of 0.6708.

For `CCCCCCCCCCCCCCCC(=O)OC[C@H](COP(=O)([O-])OCC[N+](C)(C)C)OC(=O)CCCCCCCCCCCCCCC` [PC(16:0/16:0)], the Fold change [6] was 0.7843.

With `CCCCCCCCCCCCCCCC(=O)O[C@H](CC(=O)[O-])C[N+](C)(C)C` [L-Palmitoylcarnitine] the Fold change [1] was 2.52 and the Fold change [5] was 1.713.

With `CC(C)CCC[C@@H](C)[C@H]1CC[C@H]2C3=CC[C@H]4C[C@@H](O)CC[C@]4(C)[C@H]3CC[C@]12C` [Lathosterol] the Fold change [1] was 2.481, the Fold change [2] was 0.602 and the Fold change [6] was 3.049.

`CCCCCCCCCCCCCCCCCC(=O)OC[C@@H](O)COP(=O)([O-])OCC[N+](C)(C)C` [1-Stearoyl-sn-glycerol 3-phosphocholine] was tested, and the Fold change [4] was 0.8936 and the Fold change [6] was 0.2224.

Work on `CCCCCCCCCCCCC/C=C/[C@@H](O)[C@H](CO)NC(=O)CCCCCCCCCCCCCCC` [N-Palmitoylsphingosine] yielded a Fold change [6] of 1.476.

`C=C1CC[C@H](O)C/C1=C/C=C1\CCC[C@]2(C)[C@@H]([C@H](C)CCCC(C)C)CC[C@@H]12` [Cholecalciferol (Vitamin D3)] gave a Fold change [1] of 1.921 and a Fold change [3] of 1.578.

`CCCCCCCCCCCCCCCCSC[C@H](COP(=O)(O)OCC[N+](C)(C)C)NC(=O)CCCCCCCCCCCCCCC` [Thioetheramide-PC] showed a Fold change [2] of 1.1574 and a Fold change [6] of 0.7991.
